Here are results for two compounds from patent US9315859B2, “DDAO compounds as fluorescent reference standards” (LIFE TECHNOLOGIES CORPORATION, priority 2010, dated 2016).

Structures are written as SMILES.

What all share (format): physicochemical
Series [1] in a line: Normalized fluorescent emission as a function of temperature. The note with it: signals normalized to the 94° C. data point; compared with 6-FAM and ROX. As to the method:
FIG. 6 depicts a graph of normalized fluorescent emission as a traction of temperature for Sulfo-DDAO in comparison to a reporter dye, 6-FAM, as well as a reference dye, ROX. Given the difference in brightness of the dyes shown, each data point for each curve was adjusted using an internal reference point taken from the 94° C. data point for that data set. In that regard, the fluorescence signals are normalized to give equal intensities at 94 C so that their relative changes with temperature can be easily compared. […] This attribute may be useful when, for example, dye calibration they be one at a different temperature from a run temperature, or could be useful for normalizing experimental variations as previously discussed.

Series [2] in a line: Stability of reference dye incubated in TaqMan Universal PCR Master Mix, judged by Ct values. The note with it: room temperature in TaqMan Universal PCR Master Mix, 1 day to 4 weeks; consistent Ct values. As to the method: FIG. 11 depicts the stability of Sulfo-DDAO in a master mix, and incubated with various additional additives. Sulfo-DDAO was incubated in TaqMan® Universal PCR Master Mix at room temperature for 1 day, 1 week, 2 weeks, or 4 weeks. At each designated time point, fixed quantities of various, different target polynucleotides and various dye-labeled TaqMan® probes, were added. The target/probe mixtures were PCR amplified in a 96 well plate and the signals recorded after each amplification cycle to generate an amplification count from which a Ct value was determined for each target/probe mixture, using Sulfo-DDAO as a reference dye. FIG. 11 is a graph showing the results of that experiment, with the Ct values plotted for each time point. The Sulfo-DDAO signal was stable at room temperature in TaqMan® Universal PCR Master Mix for up to 4 weeks, as evidenced by the consistent Ct values obtained at different incubation times for the different target/probe mixtures, using Sulfa-DDAO as a reference dye.
A general note: Real-time PCR tracks product formation cycle by cycle.

Series [3] is described as follows: Resilience to harsh oxidation: free dye with benzoyl peroxide, fluorescence decay. The note with it: about 1 μM free dye in Tris-EDTA buffer/MeOH, 5 μl 0.5M benzoyl peroxide in acetonitrile per 1 ml, read at 5 minute intervals, compared with ROX. As to the method: Regarding chemical stability, DDAO congeners appear to have resilience under various conditions, such as oxidation, photo-degradation, and the like. For example, regarding resilience to harsh oxidation, DDAO, Sulfo-DDAO, and ROX were each suspended as free dyes in a solution of 1.4 of Tris-EDTA buffer (1× stock concentration) in MeOH at a concentration of approximately 1 μM. Five μl of 0.5M benzoyl peroxide in acetonitrile was added to 1 ml of the dye composition in a fluorimeter cuvette. Fluorescence emission intensity was measured at each dye's emission maximum immediately, and then at 5 minute intervals. A first-order exponential curve was fit to the data to calculate the decay rate for each dye. FIG. 7 is a graph showing the results of that experiment. […] As such, the reference dyes of formula (I) can be used in assays in which the assay components might come in contact with oxidants.

Turning to `CC1(C)C2=C(Cl)C(=O)C(Cl)=CC2=Nc2cc(S(=O)(=O)O)c(O)cc21` [Sulfo-DDAO, 6,8-dichloro-2-hydroxy-9,9-dimethyl-7-oxo-7,9-dihydroacridine-3-sulfonic acid], the “stability of fluorescence emission across temperature” value in series [1] is “fairly stable”. For the same compound, in series [2], the “stability of reference dye signal in master mix” value is given as “stable”. The “resilience to oxidation (fluorescence emission decay)” value in series [3] is reported as “show resilience to oxidation”.

As to `CC1(C)C2=C(Cl)C(=O)C(Cl)=CC2=Nc2ccc(O)cc21` [DDAO, 1,3-dichloro-7-hydroxy-9,9-dimethylacridin-2(9H)-one], the “resilience to oxidation (fluorescence emission decay)” value in series [3] is listed as “show resilience to oxidation”.
